Our source for the IC50 values is patent US10752640B2, “Compounds active towards bromodomains” (NUEVOLUTION A/S, priority 2014, dated 2020).

As a reminder, the pIC50 is the negative decadic logarithm of the IC50, by convention in mol/L. Low readings indicate a large IC50, high ones a small IC50.

pIC50: −log10 of the molar value.

The test has as its target BRD4 protein (Homo sapiens, UniProt O60885). The test can be described thus: FRET assay, half maximal inhibitory concentration (IC50). It is filed as binding. Conditions: BRD4 protein 50 nM, Biotin-H4KAc4 peptide 12.5 nM; A Further List of Classification. The method, boiled down:
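Acetylated histone H4 peptide binding (biotin-H4KAc4, 12.5 nM final) to BRD4 (50 nM final) detected by TR-FRET between streptavidin cryptate (2.4 nM) and GST-XL665 antibody (10 nM) in KF/BSA. Buffer: HEPES pH 7.5, NaCl, CHAPS. Compound dilutions from 50 μM in 12.5% DMSO were preincubated with protein for 30 min. Variable-slope IC50.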
Compound `Cc1cc(O)nc2ccc(NC(=O)c3cc(S(=O)(=O)N(C)C)ccc3N3CCCC3c3cc[nH]n3)cc12` (stereo not shown) [S59, 5-(dimethylsulfamoyl)-N-(2-hydroxy-4-methyl-6-quinolyl)-2-[2-(1H-pyrazol-3-yl)pyrrolidin-1-yl]benzamide] showed a pIC50 above 6.70.

Regarding `Cc1cc(O)nc2ccc(NC(=O)c3cc(S(=O)(=O)N(C)C)ccc3N3CCCC3c3nnn[nH]3)cc12` (stereo not shown) [S60, 5-(dimethylsulfamoyl)-N-(2-hydroxy-4-methyl-6-quinolyl)-2-[2-(1H-tetrazol-5-yl)pyrrolidin-1-yl]benzamide], the negative-log IC50 (pIC50) is above 6.70. `Cc1cc(O)nc2ccc(NC(=O)c3cc(S(=O)(=O)N(C)C)ccc3N3CCC4C3CCCN4C)cc12` (stereo not shown) [S61, 5-(dimethylsulfamoyl)-N-(2-hydroxy-4-methyl-6-quinolyl)-2-(4-methyl-3,3a,5,6,7,7a-hexahydro-2H-pyrrolo[3,2-b]pyridin-1-yl)benzamide] had a pIC50 of 6.00 to 6.30. `Cc1cc(O)nc2ccc(NC(=O)c3cc(S(=O)(=O)N(C)C)ccc3N3CCCC3C(=O)N(C)C)cc12` (stereo not shown) [S62, 1-[4-(dimethylsulfamoyl)-2-[(2-hydroxy-4-methyl-6-quinolyl)carbamoyl]phenyl]-N,N-dimethyl-pyrrolidine-2-carboxamide]: the pIC50 was above 6.70. The value for `Cc1cc(O)nc2ccc(NC(=O)c3cc(S(=O)(=O)N(C)C)ccc3N3C4CCC3CC(C)(O)C4)cc12` (stereo not shown) [S65, 5-(dimethylsulfamoyl)-2-(3-hydroxy-3-methyl-8-azabicyclo[3.2.1]octan-8-yl)-N-(2-hydroxy-4-methyl-6-quinolyl)benzamide] was 6.00 to 6.30. `Cc1cc(O)nc2ccc(NC(=O)c3cc(S(=O)(=O)N(C)C)ccc3N3CC(C)C(O)CC3C)cc12` (stereo not shown) [S66, 5-(dimethylsulfamoyl)-2-(4-hydroxy-2,5-dimethyl-1-piperidyl)-N-(2-hydroxy-4-methyl-6-quinolyl)benzamide] showed a pIC50 of 6.00 to 6.30. `Cc1cc(O)nc2ccc(NC(=O)c3cc(S(=O)(=O)N(C)C)ccc3N3CCCCC3c3ccccc3)cc12` (stereo not shown) [S67, 5-(dimethylsulfamoyl)-N-(2-hydroxy-4-methyl-6-quinolyl)-2-(2-phenyl-1-piperidyl)benzamide] had a pIC50 above 6.70. Take `CCN(CC)S(=O)(=O)c1ccc(N2CCCC2)c(C(=O)Nc2ccc3nc(O)cc(C)c3c2)c1` [S71, 5-(diethylsulfamoyl)-N-(2-hydroxy-4-methyl-6-quinolyl)-2-pyrrolidin-1-yl-benzamide]: the pIC50 is 6.00 to 6.30. Regarding `CCN(CC)S(=O)(=O)c1ccc(N2CCCCC2)c(C(=O)Nc2ccc3nc(O)cc(C)c3c2)c1` [S72, 5-(diethylsulfamoyl)-N-(2-hydroxy-4-methyl-6-quinolyl)-2-(1-piperidyl)benzamide], the pIC50 is 6.00 to 6.30. In turn, `Cc1cc(O)nc2ccc(NC(=O)c3cc([N+](=O)[O-])cnc3N3CCCCC3C)cc12` (stereo not shown) [S74, N-(2-hydroxy-4-methyl-6-quinolyl)-2-(2-methyl-1-piperidyl)-5-nitro-pyridine-3-carboxamide] had a pIC50 of 6.00 to 6.30. The value for `O=C1CCc2cc(NC(=O)c3cc([N+](=O)[O-])ccc3N3CCCC3)ccc2N1` [S76, 5-nitro-N-(2-oxo-3,4-dihydro-1H-quinolin-6-yl)-2-pyrrolidin-1-yl-benzamide] was 5.00 to 6.00. Compound `CN1C(=O)COc2cc(NC(=O)c3cc([N+](=O)[O-])ccc3N3CCCC3)ccc21` [S77, N-(4-methyl-3-oxo-1,4-benzoxazin-7-yl)-5-nitro-2-pyrrolidin-1-yl-benzamide] gave a pIC50 of 5.00 to 6.00. For `O=C1CCc2cc(NC(=O)c3cc(S(=O)(=O)N4CCOCC4)ccc3N3CCCC3)ccc2N1` [S78, 5-morpholinosulfonyl-N-(2-oxo-3,4-dihydro-1H-quinolin-6-yl)-2-pyrrolidin-1-yl-benzamide], the pIC50 was 5.00 to 6.00. The value for `CN1C(=O)COc2cc(NC(=O)c3cc(S(=O)(=O)N4CCOCC4)ccc3N3CCCC3)ccc21` [S79, N-(4-methyl-3-oxo-1,4-benzoxazin-7-yl)-5-morpholinosulfonyl-2-pyrrolidin-1-yl-benzamide] was 5.00 to 6.00; that for `CN1CCN(Cc2ccc(N3CCCC3)c(C(=O)Nc3ccc4c(c3)CCC(=O)N4)c2)CC1` [S80, 5-[(4-methylpiperazin-1-yl)methyl]-N-(2-oxo-3,4-dihydro-1H-quinolin-6-yl)-2-pyrrolidin-1-yl-benzamide] was 5.00 to 6.00; that for `Cc1cc(O)nc2ccc(NC(=O)c3cc(CN(C)CCO)ccc3N3CCCC3)cc12` [S81, 5-[[2-hydroxyethyl(methyl)amino]methyl]-N-(2-hydroxy-4-methyl-6-quinolyl)-2-pyrrolidin-1-yl-benzamide] was above 6.70. The compound `Cc1cc(O)nc2ccc(NC(=O)c3cc(CNCC4CCCO4)ccc3N3CCCC3)cc12` (stereo not shown) [S82, N-(2-hydroxy-4-methyl-6-quinolyl)-2-pyrrolidin-1-yl-5-[(tetrahydrofuran-2-ylmethylamino)methyl]benzamide] gave a pIC50 above 6.70. For the compound `Cc1cc(O)nc2ccc(NC(=O)c3cc(CN4CCC(N(C)C)C4)ccc3N3CCCC3)cc12` (stereo not shown) [S83, 5-[[3-(dimethylamino)pyrrolidin-1-yl]methyl]-N-(2-hydroxy-4-methyl-6-quinolyl)-2-pyrrolidin-1-yl-benzamide], the pIC50 was above 6.70. `Cc1cc(O)nc2ccc(NC(=O)c3cc(CN4CCC(O)C4)ccc3N3CCCC3)cc12` (stereo not shown) [S84, N-(2-hydroxy-4-methyl-6-quinolyl)-5-[(3-hydroxypyrrolidin-1-yl)methyl]-2-pyrrolidin-1-yl-benzamide] showed a negative-log IC50 (pIC50) above 6.70. In the case of `COC[C@@H]1CCCN1Cc1ccc(N2CCCC2)c(C(=O)Nc2ccc3nc(O)cc(C)c3c2)c1` [S85, N-(2-hydroxy-4-methyl-6-quinolyl)-5-[[(2S)-2-(methoxymethyl)pyrrolidin-1-yl]methyl]-2-pyrrolidin-1-yl-benzamide], the pIC50 is above 6.70.

As to `Cc1cc(O)nc2ccc(NC(=O)c3cc(CN4CCN(CCO)CC4)ccc3N3CCCC3)cc12` [S86, 5-[[4-(2-hydroxyethyl)piperazin-1-yl]methyl]-N-(2-hydroxy-4-methyl-6-quinolyl)-2-pyrrolidin-1-yl-benzamide], the pIC50 was above 6.70.

`Cc1cc(O)nc2ccc(NC(=O)c3cc(CN4CCCN(C)CC4)ccc3N3CCCC3)cc12` [S87, N-(2-hydroxy-4-methyl-6-quinolyl)-5-[(4-methyl-1,4-diazepan-1-yl)methyl]-2-pyrrolidin-1-yl-benzamide] had a pIC50 above 6.70. As for `COC1CCN(Cc2ccc(N3CCCC3)c(C(=O)Nc3ccc4nc(O)cc(C)c4c3)c2)C1` (stereo not shown) [S88, N-(2-hydroxy-4-methyl-6-quinolyl)-5-[(3-methoxypyrrolidin-1-yl)methyl]-2-pyrrolidin-1-yl-benzamide], the figure is above 6.70; as for `Cc1cc(O)nc2ccc(NC(=O)c3cc(CN4CC(O)C4)ccc3N3CCCC3)cc12` [S89, 5-[(3-hydroxyazetidin-1-yl)methyl]-N-(2-hydroxy-4-methyl-6-quinolyl)-2-pyrrolidin-1-yl-benzamide], above 6.70; as for `COCC1CN(Cc2ccc(N3CCCC3)c(C(=O)Nc3ccc4nc(O)cc(C)c4c3)c2)C1` [S90, N-(2-hydroxy-4-methyl-6-quinolyl)-5-[[3-(methoxymethyl)azetidin-1-yl]methyl]-2-pyrrolidin-1-yl-benzamide], above 6.70.

Turning to `COCC1CCCN(Cc2ccc(N3CCCC3)c(C(=O)Nc3ccc4nc(O)cc(C)c4c3)c2)C1` (stereo not shown) [S91, N-(2-hydroxy-4-methyl-6-quinolyl)-5-[[3-(methoxymethyl)-1-piperidyl]methyl]-2-pyrrolidin-1-yl-benzamide], the negative-log IC50 (pIC50) is above 6.70.

The compound `Cc1cc(O)nc2ccc(NC(=O)c3cc(CN4CCOCC4)cnc3N3CCC(C)C3)cc12` (stereo not shown) [S93, N-(2-hydroxy-4-methyl-6-quinolyl)-2-(3-methylpyrrolidin-1-yl)-5-(morpholinomethyl)pyridine-3-carboxamide] had a pIC50 above 6.70.

`Cc1cc(O)nc2ccc(NC(=O)c3cc(CN4CCOCC4)cnc3N3CCCC3C)cc12` (stereo not shown) [S94, N-(2-hydroxy-4-methyl-6-quinolyl)-2-(2-methylpyrrolidin-1-yl)-5-(morpholinomethyl)pyridine-3-carboxamide]: the negative-log IC50 (pIC50) is 6.30 to 6.70. In turn, `Cc1cc(O)nc2ccc(NC(=O)c3cc(CN4CCOCC4)cnc3N3CCC(C)(F)C3)cc12` (stereo not shown) [S97, 2-(3-fluoro-3-methyl-pyrrolidin-1-yl)-N-(2-hydroxy-4-methyl-6-quinolyl)-5-(morpholinomethyl)pyridine-3-carboxamide] had a pIC50 of 6.30 to 6.70. As for `Cc1cc(O)nc2ccc(NC(=O)c3cc(CN4CCOCC4)cnc3N3CCC(C(N)=O)C3)cc12` (stereo not shown) [S98, 2-(3-carbamoylpyrrolidin-1-yl)-N-(2-hydroxy-4-methyl-6-quinolyl)-5-(morpholinomethyl)pyridine-3-carboxamide], the figure is 6.00 to 6.30. As for `Cc1cc(O)nc2ccc(NC(=O)c3cc(CN4CCOCC4)cnc3N3CCC(CC(C)C)C3)cc12` (stereo not shown) [S101, N-(2-hydroxy-4-methyl-6-quinolyl)-2-(3-isobutylpyrrolidin-1-yl)-5-(morpholinomethyl)pyridine-3-carboxamide], the pIC50 was 5.00 to 6.00. Turning to `Cc1cc(O)nc2ccc(NC(=O)c3cc(CN4CCOCC4)cnc3N3CCC(N4CCCC4)C3)cc12` (stereo not shown) [S107, N-(2-hydroxy-4-methyl-6-quinolyl)-5-(morpholinomethyl)-2-(3-pyrrolidin-1-ylpyrrolidin-1-yl)pyridine-3-carboxamide], the pIC50 was 5.00 to 6.00. The compound `Cc1cc(O)nc2ccc(NC(=O)c3cc(CN4CCOCC4)cnc3N3CCCC3C(=O)N(C)C)cc12` (stereo not shown) [S109, 2-[2-(dimethylcarbamoyl)pyrrolidin-1-yl]-N-(2-hydroxy-4-methyl-6-quinolyl)-5-(morpholinomethyl)pyridine-3-carboxamide] gave a pIC50 of 6.00 to 6.30. The value for `Cc1cc(O)nc2ccc(NC(=O)c3cc(CN4CCOCC4)cnc3N3CCC(c4ccncc4)C3)cc12` (stereo not shown) [S111, N-(2-hydroxy-4-methyl-6-quinolyl)-5-(morpholinomethyl)-2-[3-(4-pyridyl)pyrrolidin-1-yl]pyridine-3-carboxamide] was 6.00 to 6.30.
